Reference: paper PMC5218480 (PLoS ONE, 2017)

Test system: MV-4-11 cells
Assay: Gene expression microarray analysis (Affymetrix PrimeView) and GSEA
Format: cell-based, human
Design: RFU PODN (11730768_x_at) / Fold change /veh PODN (11730768_x_at) / RFU LINC00158 (11744669_a_at) / Fold change /veh LINC00158 (11744669_a_at) / RFU DUSP10 (11751237_a_at) / Fold change /veh DUSP10 (11751237_a_at) / RFU ID3 (11757404_x_at) / Fold change /veh ID3 (11757404_x_at) / RFU PLEKHG5 (11737974_s_at) / Fold change /veh PLEKHG5 (11737974_s_at) / RFU LRRC4B (11730491_at) / Fold change /veh LRRC4B (11730491_at) / RFU GIMAP4 (11747438_a_at) / Fold change /veh GIMAP4 (11747438_a_at) / RFU KRT8 (11758183_x_at) / Fold change /veh KRT8 (11758183_x_at) / RFU CNN1 (11734310_a_at) / Fold change /veh CNN1 (11734310_a_at) / RFU VPS37D (11726825_at) / Fold change /veh VPS37D (11726825_at) / RFU C10orf10 (11716522_x_at) / Fold change /veh C10orf10 (11716522_x_at) / RFU KIR2DL2 /// KIR2DL4 /// KIR2DL5A /// KIR2DL5B /// KIR2DS1 /// KIR2DS2 /// KIR2DS3 /// KIR2DS4 /// KIR3DL3 /// KIR3DL3 /// KIR3DS1 (11738374_at) / Fold change /veh KIR2DL2 /// KIR2DL4 /// KIR2DL5A /// KIR2DL5B /// KIR2DS1 /// KIR2DS2 /// KIR2DS3 /// KIR2DS4 /// KIR3DL3 /// KIR3DL3 /// KIR3DS1 (11738374_at) / RFU C1QL1 (11718748_at) / Fold change /veh C1QL1 (11718748_at) / RFU TMPRSS4 (11747572_a_at) / Fold change /veh TMPRSS4 (11747572_a_at) / RFU HAMP (11756126_x_at) / Fold change /veh HAMP (11756126_x_at) / RFU RNFT2 (11725882_a_at) / Fold change /veh RNFT2 (11725882_a_at) / RFU NR4A2 (11747474_a_at) / Fold change /veh NR4A2 (11747474_a_at) / RFU ABCC12 (11746883_a_at) / Fold change /veh ABCC12 (11746883_a_at) / RFU TMEM136 (11760407_x_at) / Fold change /veh TMEM136 (11760407_x_at) / RFU CLDN22 /// WWC2 (11732394_at) / Fold change /veh CLDN22 /// WWC2 (11732394_at) / RFU HLA-DPB1 (11760878_x_at) / Fold change /veh HLA-DPB1 (11760878_x_at) / RFU SPINT1 (11716480_a_at) / Fold change /veh SPINT1 (11716480_a_at) / RFU GAP43 (11754022_s_at) / Fold change /veh GAP43 (11754022_s_at) / RFU A4GNT (11735810_at) / Fold change /veh A4GNT (11735810_at) / RFU PRB3 (11715151_x_at) / Fold change /veh PRB3 (11715151_x_at) / RFU TUBB4B (11761932_at) / Fold change /veh TUBB4B (11761932_at) / RFU CAPN14 (11732068_a_at) / Fold change /veh CAPN14 (11732068_a_at) / RFU TMCC2 (11721928_a_at) / Fold change /veh TMCC2 (11721928_a_at) / RFU IRGQ (11745062_a_at) / Fold change /veh IRGQ (11745062_a_at) / RFU FAM174B (11720279_a_at) / Fold change /veh FAM174B (11720279_a_at) / RFU TMPRSS4 (11748680_a_at) / Fold change /veh TMPRSS4 (11748680_a_at) / RFU FAM212B (11763350_a_at) / Fold change /veh FAM212B (11763350_a_at) / RFU PLEKHG5 (11743358_a_at) / Fold change /veh PLEKHG5 (11743358_a_at) / RFU ZSCAN30 (11745921_a_at) / Fold change /veh ZSCAN30 (11745921_a_at) / RFU CMKLR1 (11741424_a_at) / Fold change /veh CMKLR1 (11741424_a_at) / RFU LOC101060620 /// MAPK8IP1 (11723275_at) / Fold change /veh LOC101060620 /// MAPK8IP1 (11723275_at) / RFU SPTSSB (11747773_x_at) / Fold change /veh SPTSSB (11747773_x_at) / RFU PRSS12 (11739890_at) / Fold change /veh PRSS12 (11739890_at) / RFU BIN1 (11741810_x_at) / Fold change /veh BIN1 (11741810_x_at) / RFU WNT11 (11732464_a_at) / Fold change /veh WNT11 (11732464_a_at) / RFU C10orf10 (11716521_a_at) / Fold change /veh C10orf10 (11716521_a_at) / RFU C5orf56 (11738089_at) / Fold change /veh C5orf56 (11738089_at) / RFU CYB561 (11721691_x_at) / Fold change /veh CYB561 (11721691_x_at) / RFU ANKRD19P (11752326_a_at) / Fold change /veh ANKRD19P (11752326_a_at) / RFU OR2T12 /// OR2T33 /// OR2T8 (11738714_s_at) / Fold change /veh OR2T12 /// OR2T33 /// OR2T8 (11738714_s_at) / RFU VCAN (11748164_a_at) / Fold change /veh VCAN (11748164_a_at) / RFU JSRP1 (11732532_at) / Fold change /veh JSRP1 (11732532_at) / RFU KRTAP10-11 (11738290_x_at) / Fold change /veh KRTAP10-11 (11738290_x_at) / RFU MYO3A (11730013_a_at) / Fold change /veh MYO3A (11730013_a_at) / RFU EBF3 (11725865_a_at) / Fold change /veh EBF3 (11725865_a_at) / RFU CAMK2N1 (11719241_x_at) / Fold change /veh CAMK2N1 (11719241_x_at) / RFU C5orf56 (11738088_a_at) / Fold change /veh C5orf56 (11738088_a_at) / RFU OLFML3 (11715873_a_at) / Fold change /veh OLFML3 (11715873_a_at) / RFU LOC100653217 /// NTM (11731650_a_at) / Fold change /veh LOC100653217 /// NTM (11731650_a_at) / RFU MAPK11 (11762145_a_at) / Fold change /veh MAPK11 (11762145_a_at) / RFU FIZ1 (11724087_x_at) / Fold change /veh FIZ1 (11724087_x_at) / RFU OASL (11726364_x_at) / Fold change /veh OASL (11726364_x_at) / RFU SOX15 (11748057_x_at) / Fold change /veh SOX15 (11748057_x_at) / RFU CD79A (11719716_a_at) / Fold change /veh CD79A (11719716_a_at) / RFU HIST1H1D (11736915_at) / Fold change /veh HIST1H1D (11736915_at) / RFU CASKIN2 (11723855_a_at) / Fold change /veh CASKIN2 (11723855_a_at) / RFU LOC730098 (11760151_x_at) / Fold change /veh LOC730098 (11760151_x_at) / RFU OR4N2 (11742367_at) / Fold change /veh OR4N2 (11742367_at) / RFU PRRT2 (11749266_a_at) / Fold change /veh PRRT2 (11749266_a_at) / RFU SNX32 (11753110_a_at) / Fold change /veh SNX32 (11753110_a_at) / RFU CDHR5 (11726645_a_at) / Fold change /veh CDHR5 (11726645_a_at) / RFU RCAN1 (11760418_a_at) / Fold change /veh RCAN1 (11760418_a_at) / RFU FAM167A (11723789_a_at) / Fold change /veh FAM167A (11723789_a_at) / RFU FAM26E (11764081_at) / Fold change /veh FAM26E (11764081_at) / RFU ISYNA1 (11749810_s_at) / Fold change /veh ISYNA1 (11749810_s_at) / RFU ACY1 (11761880_at) / Fold change /veh ACY1 (11761880_at) / RFU 11764098_at / Fold change /veh 11764098_at / RFU SAMD14 (11745864_x_at) / Fold change /veh SAMD14 (11745864_x_at) / RFU NPB (11741838_a_at) / Fold change /veh NPB (11741838_a_at) / RFU TMPRSS6 (11731388_a_at) / Fold change /veh TMPRSS6 (11731388_a_at) / RFU KRTAP10-2 (11738614_at) / Fold change /veh KRTAP10-2 (11738614_at) / RFU ARHGAP8 /// PRR5-ARHGAP8 (11727945_x_at) / Fold change /veh ARHGAP8 /// PRR5-ARHGAP8 (11727945_x_at) / RFU KRTAP5-7 /// NADSYN1 (11734609_at) / Fold change /veh KRTAP5-7 /// NADSYN1 (11734609_at) / RFU RASL12 (11751679_a_at) / Fold change /veh RASL12 (11751679_a_at) / RFU CDKN2B (11736163_a_at) / Fold change /veh CDKN2B (11736163_a_at) / RFU PRF1 (11729649_at) / Fold change /veh PRF1 (11729649_at) / RFU, ZNF638 /// ZNF638-IT1 / Fold change vs veh, ZNF638 /// ZNF638-IT1 / RFU, PANK3 / Fold change vs veh, PANK3 / RFU, SH3YL1 / Fold change vs veh, SH3YL1 / RFU, ZEB2 / Fold change vs veh, ZEB2 / RFU, NRIP1 / Fold change vs veh, NRIP1 / RFU, PTTG1IP / Fold change vs veh, PTTG1IP / RFU, CAPN2 / Fold change vs veh, CAPN2 / RFU, MED14 / Fold change vs veh, MED14 / RFU, SNORA58 / Fold change vs veh, SNORA58 / RFU, C1orf63 / Fold change vs veh, C1orf63 / RFU, LRRFIP1 / Fold change vs veh, LRRFIP1 / RFU, NDUFAF7 / Fold change vs veh, NDUFAF7 / RFU, SLC12A2 / Fold change vs veh, SLC12A2 / RFU, IBTK / Fold change vs veh, IBTK / RFU, ESF1 / Fold change vs veh, ESF1 / Fold change vs veh, TMEM50B / RFU, TAOK1 / Fold change vs veh, TAOK1 / RFU, ACBD3 / Fold change vs veh, ACBD3 / RFU, TMA16 / Fold change vs veh, TMA16 / RFU, RWDD3 / Fold change vs veh, RWDD3 / RFU, BCAT1 / Fold change vs veh, BCAT1 / RFU, EDEM3 / Fold change vs veh, EDEM3 / RFU, TMEM33 / Fold change vs veh, TMEM33 / RFU, WDR75 / Fold change vs veh, WDR75 / RFU, AHCTF1 / Fold change vs veh, AHCTF1 / RFU, TFRC / Fold change vs veh, TFRC / RFU, ZDHHC17 / Fold change vs veh, ZDHHC17 / RFU, NOM1 / Fold change vs veh, NOM1 / RFU, ARL8B / Fold change vs veh, ARL8B / RFU, ZBTB11 / Fold change vs veh, ZBTB11 / RFU, TAMM41 / Fold change vs veh, TAMM41 / RFU, KIAA1704 /// LOC100996395 / Fold change vs veh, KIAA1704 /// LOC100996395 / RFU, ING1 / Fold change vs veh, ING1 / RFU, TRMT61B / Fold change vs veh, TRMT61B / RFU, FUBP3 / Fold change vs veh, FUBP3 / RFU, TP53 / Fold change vs veh, TP53 / RFU, TNKS2 / Fold change vs veh, TNKS2 / RFU, ZFP14 / Fold change vs veh, ZFP14 / RFU, ACTR2 / Fold change vs veh, ACTR2 / RFU, PPP3R1 / Fold change vs veh, PPP3R1 / RFU, PIK3R1 / Fold change vs veh, PIK3R1 / RFU, HNRNPA1 / Fold change vs veh, HNRNPA1 / RFU, RNF170 / Fold change vs veh, RNF170 / RFU, ZNF28 / Fold change vs veh, ZNF28 / RFU, RNGTT / Fold change vs veh, RNGTT / RFU, OGT / Fold change vs veh, OGT / RFU, BRD1 / Fold change vs veh, BRD1 / RFU, MARS / Fold change vs veh, MARS / RFU, ZNF655 / Fold change vs veh, ZNF655 / RFU, FAHD1 / Fold change vs veh, FAHD1 / RFU, BDP1 / Fold change vs veh, BDP1 / RFU, LRRCC1 / Fold change vs veh, LRRCC1 / RFU, ARID1A / Fold change vs veh, ARID1A / RFU, ZNF146 / Fold change vs veh, ZNF146 / RFU, ZNF330 / Fold change vs veh, ZNF330 / RFU, GPN3 / Fold change vs veh, GPN3 / RFU, C9orf123 / Fold change vs veh, C9orf123 / RFU, N4BP2L2 / Fold change vs veh, N4BP2L2 / RFU, ARFIP1 / Fold change vs veh, ARFIP1 / RFU, FAM179B / Fold change vs veh, FAM179B / RFU, BCL10 / Fold change vs veh, BCL10 / RFU, UHRF1BP1L / Fold change vs veh, UHRF1BP1L / RFU, BET1 / Fold change vs veh, BET1 / RFU, CNOT2 / Fold change vs veh, CNOT2 / RFU, ZNF268 / Fold change vs veh, ZNF268 / Fold change vs veh, ZNF507 / RFU, DGCR2 / Fold change vs veh, DGCR2 / RFU, WDSUB1 / Fold change vs veh, WDSUB1 / Fold change vs veh, HSP90B1 /// MIR3652 / RFU, ADSS / Fold change vs veh, ADSS / RFU, GK / Fold change vs veh, GK / RFU, ZNF148 / Fold change vs veh, ZNF148 / RFU, TAF9 / Fold change vs veh, TAF9 / RFU, SLC1A5 / Fold change vs veh, SLC1A5 / RFU, SLMO2 / Fold change vs veh, SLMO2 / RFU, ABCC4 / Fold change vs veh, ABCC4 / RFU, LOC101060439 /// RAP1B / Fold change vs veh, LOC101060439 /// RAP1B / RFU, RFX7 / Fold change vs veh, RFX7 / RFU, GTPBP10 / Fold change vs veh, GTPBP10 / RFU, CNEP1R1 / Fold change vs veh, CNEP1R1 / RFU, BIVM-ERCC5 /// ERCC5 / Fold change vs veh, BIVM-ERCC5 /// ERCC5 / RFU, ILF3 / Fold change vs veh, ILF3 / RFU 11762660_at / Fold change /veh 11762660_at / RFU VCAN (11757783_s_at) / Fold change /veh VCAN (11757783_s_at) / RFU DDX43 (11728927_at) / Fold change /veh DDX43 (11728927_at) / RFU KRT8 (11758188_x_at) / Fold change /veh KRT8 (11758188_x_at) / RFU NKD1 (11759106_at) / Fold change /veh NKD1 (11759106_at) / RFU SRD5A1 (11742802_a_at) / Fold change /veh SRD5A1 (11742802_a_at) / RFU TPSAB1 /// TPSB2 (11721975_s_at) / Fold change /veh TPSAB1 /// TPSB2 (11721975_s_at) / RFU GSTM3 (11746129_a_at) / Fold change /veh GSTM3 (11746129_a_at) / RFU IL23R (11737362_x_at) / Fold change /veh IL23R (11737362_x_at) / RFU TMEM51 (11727254_a_at) / Fold change /veh TMEM51 (11727254_a_at) / RFU PIWIL2 (11732686_x_at) / Fold change /veh PIWIL2 (11732686_x_at) / RFU ORM1 (11744905_x_at) / Fold change /veh ORM1 (11744905_x_at) / RFU CCDC152 (11743942_at) / Fold change /veh CCDC152 (11743942_at) / RFU ECM1 (11717891_a_at) / Fold change /veh ECM1 (11717891_a_at) / RFU IL23R (11748794_a_at) / Fold change /veh IL23R (11748794_a_at) / RFU TNFAIP8L3 (11732012_x_at) / Fold change /veh TNFAIP8L3 (11732012_x_at) / RFU MBOAT4 (11741988_at) / Fold change /veh MBOAT4 (11741988_at) / RFU 11764193_at / Fold change /veh 11764193_at / RFU TMEM53 (11763286_at) / Fold change /veh TMEM53 (11763286_at) / RFU MAGEB2 (11727129_at) / Fold change /veh MAGEB2 (11727129_at) / RFU TMEM200A (11744735_a_at) / Fold change /veh TMEM200A (11744735_a_at) / RFU CCDC152 (11751479_a_at) / Fold change /veh CCDC152 (11751479_a_at) / RFU FAM211A (11726209_a_at) / Fold change /veh FAM211A (11726209_a_at) / RFU RGS16 (11746705_a_at) / Fold change /veh RGS16 (11746705_a_at) / RFU VCAN (11755009_s_at) / Fold change /veh VCAN (11755009_s_at) / RFU RHOB (11743442_s_at) / Fold change /veh RHOB (11743442_s_at) / RFU RGS16 (11720943_a_at) / Fold change /veh RGS16 (11720943_a_at) / RFU RGS16 (11720944_at) / Fold change /veh RGS16 (11720944_at) / RFU, VPS4B / Fold change vs veh, VPS4B / RFU, CREB1 / Fold change vs veh, CREB1 / RFU, DNAJC13 / Fold change vs veh, DNAJC13 / RFU, GNAQ / Fold change vs veh, GNAQ / RFU, CDK5R1 / Fold change vs veh, CDK5R1 / RFU, ZRANB3 / Fold change vs veh, ZRANB3 / RFU, CUL4A / Fold change vs veh, CUL4A / RFU, CCNY / Fold change vs veh, CCNY / RFU, UFL1 / Fold change vs veh, UFL1 / RFU, COG3 / Fold change vs veh, COG3 / RFU, DIAPH2 / Fold change vs veh, DIAPH2 / RFU, SKA2 / Fold change vs veh, SKA2 / RFU, AFF3 / Fold change vs veh, AFF3 / RFU, LMF1 / Fold change vs veh, LMF1 / RFU, IPO11 / Fold change vs veh, IPO11 / RFU, DFFB / Fold change vs veh, DFFB / RFU, FOXP1 / Fold change vs veh, FOXP1 / RFU, CARD8 / Fold change vs veh, CARD8 / RFU, STRN3 / Fold change vs veh, STRN3 / RFU, ADK / Fold change vs veh, ADK / RFU, RASSF2 / Fold change vs veh, RASSF2 / RFU, WIPF1 / Fold change vs veh, WIPF1 / RFU, LARP1B / Fold change vs veh, LARP1B / RFU, RASA1 / Fold change vs veh, RASA1 / RFU, RB1 / Fold change vs veh, RB1 / RFU, PPFIA1 / Fold change vs veh, PPFIA1 / RFU, MAT2A / Fold change vs veh, MAT2A / RFU, CCT5 / Fold change vs veh, CCT5 / RFU, WDR92 / Fold change vs veh, WDR92 / RFU, CUX1 / Fold change vs veh, CUX1 / RFU, TTC7A / Fold change vs veh, TTC7A / RFU, TMEM135 / Fold change vs veh, TMEM135 / RFU, DEPTOR / Fold change vs veh, DEPTOR / RFU, CPM / Fold change vs veh, CPM / RFU, DNAJB6 / Fold change vs veh, DNAJB6 / RFU, CACNA2D3 / Fold change vs veh, CACNA2D3 / RFU, DTX4 / Fold change vs veh, DTX4 / RFU, TFCP2 / Fold change vs veh, TFCP2 / RFU, GMCL1 /// GMCL1P1 / Fold change vs veh, GMCL1 /// GMCL1P1 / RFU, AEBP2 / Fold change vs veh, AEBP2 / RFU, SNHG1 /// SNORD22 /// SNORD25 /// SNORD26 /// SNORD27 /// SNORD28 /// SNORD29 /// SNORD31 / Fold change vs veh, SNHG1 /// SNORD22 /// SNORD25 /// SNORD26 /// SNORD27 /// SNORD28 /// SNORD29 /// SNORD31 / Fold change (Aza/veh), C12orf56 (ProbeSet 11735607_a_at) / Fold change (ACY-1035/veh), C12orf56 (ProbeSet 11735607_a_at) / Fold change (Aza/veh), FGFR1OP (ProbeSet 11751329_s_at) / Fold change (ACY-1035/veh), FGFR1OP (ProbeSet 11751329_s_at) / Fold change (Aza/veh), VPS36 (ProbeSet 11739960_a_at) / Fold change (ACY-1035/veh), VPS36 (ProbeSet 11739960_a_at) / RFU SYPL1 (11715823_x_at) / Fold change /veh SYPL1 (11715823_x_at) / RFU IGFBP7 (11715501_s_at) / Fold change /veh IGFBP7 (11715501_s_at) / RFU REEP3 (11722064_at) / Fold change /veh REEP3 (11722064_at) / RFU IGLL1 (11728026_x_at) / Fold change /veh IGLL1 (11728026_x_at): dose or concentration left out as unconfirmed
Conditions: MV-4-11 cells, 48 hours

Nc1ncn([C@@H]2O[C@H](CO)[C@@H](O)[C@H]2O)c(=O)n1 [azacitidine]
Fold change /veh MBOAT4 (11741988_at): 1.51
